How the values were obtained:
[1] = target: EZH2 (Homo sapiens, UniProt Q15910); assay: EZH2 Assay (3H SAM methyl transfer, rPRC2, FlashPlate); assay type: biochemical; details: rPRC2, biotinylated oligonucleosomes, 0.2 μM 3H SAM, 2 nM EZH2
Method: (§1) EZH2 Assay: Assays were carried out by mixing rPRC2 together with biotinylated oligonucleosome substrates in the presence of the radio-labeled enzyme co-factor, S-adenosyl-L-methionine (^3H SAM) (Perkin Elmer) and monitoring the enzymatically mediated transfer of tritiated methyl groups from ^3H SAM to histone lysine residues. The amount of resulting tritiated methyl histone product was measured by first capturing the biotinylated oligonucleosomes in streptavidin (SAV) coated FlashPlates (Perkin Elmer), followed by a wash step to remove unreacted ^3H SAM, and then counting on a TopCount NXT 384 well plate scintillation counter (Perkin Elmer). The final assay conditions for EZH2 were as follows: 50 mM Tris Buffer pH 8.5, 1 mM DTT, 69 μM Brij-35 detergent, 5.0 mM MgCl2, 0.1 mg/mL BSA, 0.2 μM ^3H SAM, 0.2 μM biotinylated oligonucleosomes, 3.6 μM H3K27me3 peptide and 2 nM EZH2.
(§2) Compound IC50 measurements were obtained as follows: Compounds were first dissolved in 100% DMSO as 10 mM stock solutions. Ten point dose response curves were generated by dispensing varying amounts of the 10 mM compound solution in 10 wells of the 384 well plate (Echo; Labcyte), pure DMSO was then used to backfill the wells to insure all wells have the same amount of DMSO. A 12.5 μL volume of the HMT enzyme, H3K27me3 peptide and oligonucleosome substrate in assay buffer was added to each well of the assay plate using a Multidrop Combi (ThermoFisher). Compounds were pre-incubated with the enzyme for 20 min, followed by initiation of the methyltransferase reaction by addition of 12.5 μL of ^3H SAM in assay buffer (final volume=25 μL). The final concentrations of compounds ranged from a top default concentration of 80 μM down to 0.16 μM in ten 2-fold dilution steps. Reactions were carried out for 60 minutes and quenched with 20 μL per well of 1.96 mM SAH, 50 mM Tris pH 8.5, 200 mM EDTA. Stopped reactions were transferred to SAV coated Flashplates (Perkin Elmer), incubated for 120 min, washed with a plate washer, and then read on the TopCount NXT (1.0 min/well) to measure the amount of methyl histone product formed during the reaction. The amount of methyl histone product was compared with the amount of product formed in the 0% and 100% inhibition control wells allowing the calculation of % Inhibition in the presence of the individual compounds at various concentrations. IC50's were computed using a 4 parameter fit non-linear curve fitting software package (XLFIT, part of the database package, ActivityBase (IDBS)) where the four parameters were IC50, Hill slope, pre-transitional baseline (0% INH), and post-transitional baseline (100% INH); with the latter two parameters being fixed to zero and 100%, respectively, by default.

[2] = target: Y641N EZH2 (Homo sapiens, UniProt Q15910, Y641N); assay: Assay for Y641N EZH2 (as the EZH2 assay, H3K27Me2 oligonucleosomes as substrate); assay type: biochemical; details: Y641N EZH2 mutant, reconstituted H3K27Me2 oligonucleosomes as substrate
Method: as §1, §2
Assay for Y641N EZH2 was performed as above using reconstituted H3K27Me2 oligonucleosomes as substrate.

[3] = test system: H3K27me3 mark in Hela cells expressing wild type EZH2; assay: H3K27me3 MSD Hela Assay; assay type: cell-based; details: read-out: H3K27me3_MSD_HeLa (EC50)
Method: H3K27me3 MSD Hela Assay. Trypsinized HeLa cells were counted and diluted in 10% DMEM (Life Technologies, Cat. #10569) to 5000 cells/75 μL. Seventy-five μL of cells were place in each well of a 96-well flat-bottomed plate and incubated at 37° C. for 4 hours. Twenty-five μL of test compound (at various concentrations) was added to the cells and incubation continued at 37° C. for 96 hours. Media was then removed and the cells rinsed once with ice cold PBS. Forty μL of ice-cold MSD Buffer AT (10 mM HEPES, pH 7.9, 5 mM MgCl2, 0.25M sucrose, Benzonase (1:10000), 1% Triton X-100 supplemented with fresh 1× Protease Inhibitor cocktail and 1 mM 4-(2-Aminoethyl)benzenesulfonyl fluoride hydrochloride (AEBSF)) was added to each well and the plates placed on ice for 30 minutes. Ten μL of 5M NaCl was then added to each well and incubation on ice continued for another 15 minutes. The material in each well was suspended pipetting up and down and then transferred to a new 96 well plate. The emptied wells were rinsed with 150 uL ice-cold 20 mM Tris pH 7.5, 1 mM EDTA, 1 mM EGTA, supplemented with fresh 1× Protease Inhibitor cocktail and 1 mM AEBSF (“NO salt NO detergent buffer) and transferred to the respective wells in the new plate. Three hundred μL of NO Salt NO detergent buffer was then added to each well of lysates and the plates frozen at −80° C.
On the same day, an appropriate number of MSD standard bind 96-well plates were coated with 30 μL/well of total H3 capture antibody (Millipore, Cat # MAB3422) at 1 μg/mL concentration in PBS. The antibody solution was evenly distributed first by tapping gently on the sides of the plates and then by shaking the plates for a few minutes at 1000 rpm. Antibody coated plates were stored at 4° C. overnight.
The next day the lysates are thawed to RT. The antibody coated MSD plates are washed 3× with TBS-T (Tris-buffered saline (Fisher Scientific, Cat #BP2471-1)+0.2% Tween-20). One-hundred fifty μL of 5% Blocker A in TBS-T is added to each well. The wells are covered and shaken on a shaker at RT for one hour. The Blocker A step is repeated a second time. After removing the blocker, 25 μL of cell lysate is transferred into each antibody coated well. The plates are shaken for 2 hours at RT, the lysate removed and the plates again washed with Blocker A in TBS-T. Twenty-five μL of appropriate freshly prepared antibody mix (including both primary and secondary antibodies) is added to each well and the plates shaken for 1 hour at RT.
Both H3 antibodies were obtained from Cell Signalling (Cat #s 4499 and 9733). The goat anti-rabbit antibody was obtained from Meso-Scale Discovery (Cat #R32AB-1).
The antibody mix was then removed and the wells washed with Blocker A. One hundred-fifty μL of freshly prepared 1×MSD Read Buffer (Meso-Scale Discovery; Cat #R927C-2) was then added to each well and the plates read on a MSD Sector 2400 Plate Reader.
(§3) Data was analyzed using Assay Assistant (Constellation Pharmaceuticals In-house product) and Activity Base (IDBS Ltd, Surrey, UK) template. Data files were imported to Assay Assistant and assay conditions were specified. A unique Analysis ID was created and the data files exported to Activity Base. An analysis template was created on Activity Base to measure dose-dependent inhibition of H3K27me3 mark and cell viability respectively. Readout of DMSO wells were used to normalize the data. Resulting curves were fitted using Activity base software Model 205 (IDBS Ltd, Surrey, UK). The data was checked for quality, validated and integrated in excel format using SARview (IDBS Ltd, Surrey, UK).

[4] = test system: H3K27me3 mark in Hela cells expressing wild type EZH2; assay: H3K27me3 Alpha Hela Assay (AlphaLISA); assay type: cell-based; details: Homo sapiens, 72 hrs, read-out: H3K27me3_Alpha_HeLa (EC50)
Method: H3K27me3 Alpha Hela Assay (AlphaLISA). Ten different doses of each test compound (in a series of 3-fold dilutions) were plated in duplicate 384-well tissue culture treated plates (Catalog #781080; Greiner Bio One; Monroe, N.C.). Hela cells grown in culture were trypsinized and counted using a Countess® cell counter (Catalog # C10281; Life Technologies, Grand Island, N.Y.). Cell were diluted to 67,000 cells per mL in 10% DMEM (Catalog #10569-010 Life Technologies, Grand Island, N.Y.) and 15 μL (1,000 cells) were plated into each well using the Biotek MicroFlo™ Select Dispenser (BioTek Instruments, Inc. Vermont, USA),) of the 384-well plate. Plates were incubated at 37° C./5% CO2 for 72 hrs. One of the duplicate plates was processed for HeLa assay and the other for viability.
To the plate processed for AlphaLISA was added 5 μL per well Cell-Histone Lysis buffer (1×) (Catalog # AL009F1 Perkin Elmer; Waltham, Mass.) and the plate was incubated at RT for 30 minutes on a plate shaker with low speed (Model#4625-Q Thermo Scientific; Waltham, Mass.). Then, 10 μL per well Histone Extraction buffer (catalog # AL009F2; Perkin Elmer; Waltham, Mass.) was added and the plate further incubated at RT for 20 min on plate shaker with low speed. To each well was then added 10 μL per well of a 5× mix of anti-K27me3 acceptor beads plus Biotinylated anti-Histone H3 (C-ter) Antibody (diluted to 3 nM final) (Catalog #AL118 Perkin Elmer; Waltham, Mass.). Dilution of the acceptor beads and then anti-Histone H3 was with 1× Histone Detection buffer (Catalog # AL009F3 Perkin Elmer; Waltham, Mass.) which was produced diluted from the 10× stock provided. The plate was sealed with an aluminum plate sealer and incubated at 23° C. for 60 min. We then added 10 μL 5× solution of Streptavidin Donor beads (Catalog #6760002 Perkin Elmer; Waltham, Mass.) (20 μg/mL final in 1× Histone Detection Buffer), sealed the plate with Aluminum plate sealer and incubated at 23° C. for 30 min. The plates were then read using an EnVision-Alpha Reader (model #2104 Perkin Elmer; Waltham, Mass.).
as §3, with “Data from both assays was analyzed” for “Data was analyzed”

Chain of EZH2 (Q15910 whole entry): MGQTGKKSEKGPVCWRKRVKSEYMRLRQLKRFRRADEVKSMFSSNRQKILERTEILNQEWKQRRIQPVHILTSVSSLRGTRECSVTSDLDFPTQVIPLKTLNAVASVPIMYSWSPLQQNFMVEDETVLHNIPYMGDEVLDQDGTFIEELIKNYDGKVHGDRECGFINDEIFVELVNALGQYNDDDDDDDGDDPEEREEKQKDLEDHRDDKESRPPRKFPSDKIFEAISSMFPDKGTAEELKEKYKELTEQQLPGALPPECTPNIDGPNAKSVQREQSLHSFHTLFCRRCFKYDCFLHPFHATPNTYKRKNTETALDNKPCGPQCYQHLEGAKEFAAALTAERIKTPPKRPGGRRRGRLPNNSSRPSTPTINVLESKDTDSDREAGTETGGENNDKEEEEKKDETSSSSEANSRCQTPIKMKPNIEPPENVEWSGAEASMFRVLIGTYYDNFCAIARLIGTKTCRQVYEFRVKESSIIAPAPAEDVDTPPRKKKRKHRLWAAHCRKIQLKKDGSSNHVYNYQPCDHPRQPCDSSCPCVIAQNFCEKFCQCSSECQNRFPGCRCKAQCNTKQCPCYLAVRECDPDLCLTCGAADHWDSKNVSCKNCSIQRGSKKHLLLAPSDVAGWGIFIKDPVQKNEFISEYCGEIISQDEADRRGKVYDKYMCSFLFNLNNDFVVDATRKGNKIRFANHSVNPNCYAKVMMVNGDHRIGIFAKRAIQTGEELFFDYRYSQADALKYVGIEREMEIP
Chain of EZH2 (O75530 whole entry partner): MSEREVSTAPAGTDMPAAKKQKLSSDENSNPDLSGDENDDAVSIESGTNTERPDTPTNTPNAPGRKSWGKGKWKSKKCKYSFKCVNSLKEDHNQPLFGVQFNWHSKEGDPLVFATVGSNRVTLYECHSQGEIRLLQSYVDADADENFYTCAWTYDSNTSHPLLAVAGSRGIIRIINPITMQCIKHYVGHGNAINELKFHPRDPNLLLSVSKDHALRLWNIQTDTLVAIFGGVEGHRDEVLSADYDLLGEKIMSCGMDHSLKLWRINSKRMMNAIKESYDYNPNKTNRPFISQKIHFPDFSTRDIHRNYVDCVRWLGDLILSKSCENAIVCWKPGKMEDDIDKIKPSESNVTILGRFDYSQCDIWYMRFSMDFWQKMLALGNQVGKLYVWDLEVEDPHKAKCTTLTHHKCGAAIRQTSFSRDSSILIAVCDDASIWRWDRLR
Chain of EZH2 (Q15022 whole entry partner): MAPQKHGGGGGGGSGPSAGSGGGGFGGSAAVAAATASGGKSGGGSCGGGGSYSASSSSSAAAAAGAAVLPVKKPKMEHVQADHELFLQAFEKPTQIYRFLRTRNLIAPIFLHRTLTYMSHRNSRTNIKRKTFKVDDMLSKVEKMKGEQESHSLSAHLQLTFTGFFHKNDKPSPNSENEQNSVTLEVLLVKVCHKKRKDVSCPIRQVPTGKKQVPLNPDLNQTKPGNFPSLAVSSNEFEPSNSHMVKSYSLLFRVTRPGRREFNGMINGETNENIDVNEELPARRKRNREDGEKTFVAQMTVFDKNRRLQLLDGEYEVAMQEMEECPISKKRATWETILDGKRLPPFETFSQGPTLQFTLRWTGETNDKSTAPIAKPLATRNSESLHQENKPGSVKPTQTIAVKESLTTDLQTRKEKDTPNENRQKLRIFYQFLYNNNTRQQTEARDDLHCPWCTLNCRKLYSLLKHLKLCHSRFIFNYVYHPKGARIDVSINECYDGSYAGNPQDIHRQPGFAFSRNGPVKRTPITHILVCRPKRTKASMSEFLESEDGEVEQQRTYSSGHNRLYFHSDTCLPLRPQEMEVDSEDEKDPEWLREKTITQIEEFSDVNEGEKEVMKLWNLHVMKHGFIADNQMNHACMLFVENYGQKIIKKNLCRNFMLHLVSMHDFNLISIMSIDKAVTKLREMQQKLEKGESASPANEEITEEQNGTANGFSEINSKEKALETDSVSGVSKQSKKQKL
Chain of Y641N EZH2 (Q15910 whole entry Y641N): as the sequence (Q15910 whole entry) above, with Y641N counted along it
Chain of Y641N EZH2 (O75530 whole entry partner): as the sequence (O75530 whole entry partner) above
Chain of Y641N EZH2 (Q15022 whole entry partner): as the sequence (Q15022 whole entry partner) above

| IC50 [1] [nM] | IC50 [2] [nM] | EC50 ([3]; Homo sapiens, HeLa, 96 h) [nM] | EC50 ([3]; 96 hours) [nM] | EC50 [4] [nM] | Structure (SMILES) |
| --- | --- | --- | --- | --- | --- |
| < 100 | < 100 | 400 to 2000 |  |  | COc1cc(C)[nH]c(=O)c1CNC(=O)c1c(C)c(C(C)C2CC2)n2ncccc12 (racemic) [Compound 102, (±)-7-(1-cyclopropylethyl)-N-((4-methoxy-6-methyl-2-oxo-1,2-dihydropyridin-3-yl)methyl)-6-methylpyrrolo[1,2-b]pyridazine-5-carboxamide] |
| < 100 | 100 to 1000 |  | 2000 to 10000 |  | CCN(C(C)c1c(C)c(C(=O)NCc2c(OC)cc(C)[nH]c2=O)c2cccnn12)S(C)(=O)=O (single isomer, unassigned) [Compound 107, (R or S)-7-(1-(N-ethylmethylsulfonamido)ethyl)-N-((4-methoxy-6-methyl-2-oxo-1,2-dihydropyridin-3-yl)methyl)-6-methylpyrrolo[1,2-b]pyridazine-5-carboxamide] |
| < 100 | 100 to 1000 |  | 400 to 2000 |  | CCN(C(C)c1c(C)c(C(=O)NCc2c(OC)cc(C)[nH]c2=O)c2cccnn12)S(C)(=O)=O (single isomer, unassigned) [Compound 108, (R or S)-7-(1-(N-ethylmethylsulfonamido)ethyl)-N-((4-methoxy-6-methyl-2-oxo-1,2-dihydropyridin-3-yl)methyl)-6-methylpyrrolo[1,2-b]pyridazine-5-carboxamide] |
| < 100 | 100 to 1000 |  |  | < 400 | COc1cc(C)[nH]c(=O)c1CNC(=O)c1c(C)c(C(C)C2CCN(CC(C)(C)F)CC2)n2ncccc12 (stereo not shown) [Compound 144, 7-(1-(1-(2-fluoro-2-methylpropyl)piperidin-4-yl)ethyl)-N-((4-methoxy-6-methyl-2-oxo-1,2-dihydropyridin-3-yl)methyl)-6-methylpyrrolo[1,2-b]pyridazine-5-carboxamide] |

Second part, the compound before the results:

| Structure (SMILES) | IC50 [1] [nM] | IC50 [2] [nM] | EC50 ([3]; Homo sapiens, HeLa, 96 h) [nM] | EC50 ([3]; 96 hours) [nM] | EC50 [4] [nM] |
| --- | --- | --- | --- | --- | --- |
| COc1cc(C)[nH]c(=O)c1CNC(=O)c1c(C)c(C(C)N(C)S(C)(=O)=O)n2ncccc12 (racemic) [Compound 103, (±)-N-((4-methoxy-6-methyl-2-oxo-1,2-dihydropyridin-3-yl)methyl)-6-methyl-7-(1-(N-methylmethylsulfonamido)ethyl)pyrrolo[1,2-b]pyridazine-5-carboxamide] | < 100 | 100 to 1000 | 400 to 2000 |  |  |
| COc1cc(C)[nH]c(=O)c1CNC(=O)c1c(C)c(C(C)NS(C)(=O)=O)n2ncccc12 (racemic) [Compound 112, (±)-N-((4-methoxy-6-methyl-2-oxo-1,2-dihydropyridin-3-yl)methyl)-6-methyl-7-(1-(methylsulfonamido)ethyl)pyrrolo[1,2-b]pyridazine-5-carboxamide] | < 100 | 100 to 1000 | 2000 to 10000 |  |  |
| COc1cc(C)[nH]c(=O)c1CNC(=O)c1c(C)c(C(C)c2cccnc2)n2ncccc12 (racemic) [Compound 113, (±)-N-((4-methoxy-6-methyl-2-oxo-1,2-dihydropyridin-3-yl)methyl)-6-methyl-7-(1-(pyridin-3-yl)ethyl)pyrrolo[1,2-b]pyridazine-5-carboxamide] | < 100 | < 100 | < 400 |  |  |
| COc1cc(C)[nH]c(=O)c1CNC(=O)c1c(C)c(C(C)c2ccccc2)n2ncccc12 (single isomer, unassigned) [Compound 106, (R or S)-N-((4-methoxy-6-methyl-2-oxo-1,2-dihydropyridin-3-yl)methyl)-6-methyl-7-(1-phenylethyl)pyrrolo[1,2-b]pyridazine-5-carboxamide] |  |  |  | < 400 |  |

Reference: patent publication US9745305B2, “Modulators of methyl modifying enzymes, compositions and uses thereof” (Constellation Pharmaceuticals, Inc., priority 2013, dated 2017)
